Experimental data: PubChem BioAssay AID256 (DTP/NCI, 2004)
Several values for one entry are separate records, joined by “and”; a condition that tells them apart may be missing. Identical values can stand only once. Inconclusive results and toxic doses are left out. The calls were made as follows: active = survival T/C of 150% or more; inactive = T/C below 125% in these data.

Test system: CD2F1 mice, L1210 leukemia ip, survival T/C
Test: NCI In Vivo Anticancer Drug Screen. Data for tumor model L1210 Leukemia (intraperitoneal) in CD2F1 (CDF1) mice
Conditions: higher = longer survival
Method in brief: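 Read-out first: treated-group measurement over vehicle-control measurement, expressed as a ratio. Animals bore a transplanted tumor line and were dosed with compound or vehicle.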

[1] = endpoint: mean survival time, dose: 12.5 mg/kg/injection, schedule: Q01DX009 (ip), vehicle: saline with Tween-80
[2] = endpoint: mean survival time, dose: 25.0 mg/kg/injection, schedule: Q01DX009 (ip), vehicle: saline with Tween-80
[3] = endpoint: mean survival time, dose: 50.0 mg/kg/injection, schedule: Q01DX009 (ip), vehicle: saline with Tween-80
[4] = endpoint: mean survival time, dose: 100.0 mg/kg/injection, schedule: Q01DX009 (ip), vehicle: saline with Tween-80
[5] = endpoint: mean survival time, dose: 200.0 mg/kg/injection, schedule: Q01DX009 (ip), vehicle: saline with Tween-80
[6] = endpoint: mean survival time, dose: 100.0 mg/kg/injection, schedule: Q04DX002 (ip), vehicle: saline with Tween-80
[7] = endpoint: mean survival time, dose: 200.0 mg/kg/injection, schedule: Q04DX002 (ip), vehicle: saline with Tween-80
[8] = endpoint: mean survival time, dose: 400.0 mg/kg/injection, schedule: Q04DX002 (ip), vehicle: saline with Tween-80
[9] = endpoint: mean survival time, dose: 100.0 mg/kg/injection, schedule: Q01DX001 (ip), vehicle: saline with Tween-80
[10] = endpoint: mean survival time, dose: 200.0 mg/kg/injection, schedule: Q01DX001 (ip), vehicle: saline with Tween-80
[11] = endpoint: mean survival time, dose: 400.0 mg/kg/injection, schedule: Q01DX001 (ip), vehicle: saline with Tween-80
[12] = endpoint: mean survival time, dose: 100.0 mg/kg/injection, schedule: Q04DX003 (ip), vehicle: saline with Tween-80
[13] = endpoint: mean survival time, dose: 200.0 mg/kg/injection, schedule: Q04DX003 (ip), vehicle: saline with Tween-80
[14] = endpoint: mean survival time, dose: 100.0 mg/kg/injection, schedule: Q04DX003 (ip), vehicle: saline
[15] = endpoint: mean survival time, dose: 200.0 mg/kg/injection, schedule: Q04DX003 (ip), vehicle: saline
[16] = endpoint: mean survival time, dose: 400.0 mg/kg/injection, schedule: Q04DX003 (ip), vehicle: saline
[17] = endpoint: mean survival time, dose: 50.0 mg/kg/injection, schedule: Q01DX009 (ip), vehicle: saline
[18] = endpoint: mean survival time, dose: 100.0 mg/kg/injection, schedule: Q01DX009 (ip), vehicle: saline
[19] = endpoint: mean survival time, dose: 200.0 mg/kg/injection, schedule: Q01DX009 (ip), vehicle: saline

Measured: T/C

CN(C)N=Nc1ccc(C(N)=O)cc1C(N)=O
inactive: endpoint: mean survival time, dose: 18.75 mg/kg/injection, schedule: Q01DX009 (ip), vehicle: Klucel (hydroxypropylcellulose) (HPC) 115 % of control and 104 % of control | endpoint: mean survival time, dose: 37.5 mg/kg/injection, schedule: Q01DX009 (ip), vehicle: Klucel (hydroxypropylcellulose) (HPC) 122 % of control and 112 % of control | endpoint: mean survival time, dose: 75.0 mg/kg/injection, schedule: Q01DX009 (ip), vehicle: Klucel (hydroxypropylcellulose) (HPC) 123 % of control and 124 % of control

CC(=O)Nc1ccc(S(=O)(=O)CO)cc1
inactive: [1] 97 % of control | [2] 92 % of control and 97 % of control | [3] 102 % of control and 108 % of control | [4] 101 % of control and 108 % of control | [5] 101 % of control and 103 % of control | endpoint: mean survival time, dose: 400.0 mg/kg/injection, schedule: Q01DX009 (ip), vehicle: saline with Tween-80 101 % of control and 109 % of control

CCC1(C)CC(=O)NC(=O)C1
inactive: endpoint: mean survival time, dose: 2.5 mg/kg/injection, schedule: Q01DX009 (ip), vehicle: saline with Tween-80 97 % of control | endpoint: mean survival time, dose: 5.0 mg/kg/injection, schedule: Q01DX009 (ip), vehicle: saline with Tween-80 100 % of control | endpoint: mean survival time, dose: 10.0 mg/kg/injection, schedule: Q01DX009 (ip), vehicle: saline with Tween-80 94 % of control

CCCCN(CNC(C)=O)N=O
inactive: [6] 95 % of control | [7] 88 % of control | [8] 100 % of control

COc1ccc2cc(OC)c(OC)cc2n1
inactive: [9] 96 % of control | [10] 96 % of control | [11] 98 % of control

CC(=O)NC(C)(C)C
inactive: [12] 98 % of control | [13] 106 % of control | endpoint: mean survival time, dose: 400.0 mg/kg/injection, schedule: Q04DX003 (ip), vehicle: saline with Tween-80 104 % of control

Cc1nnc(C(N)=O)c(=O)[nH]1
inactive: endpoint: mean survival time, dose: 100.0 mg/kg/injection, schedule: Q01DX001 (ip), vehicle: Klucel (hydroxypropylcellulose) (HPC) 102 % of control | endpoint: mean survival time, dose: 200.0 mg/kg/injection, schedule: Q01DX001 (ip), vehicle: Klucel (hydroxypropylcellulose) (HPC) 98 % of control | endpoint: mean survival time, dose: 400.0 mg/kg/injection, schedule: Q01DX001 (ip), vehicle: Klucel (hydroxypropylcellulose) (HPC) 100 % of control

C[n+]1cccc(C(=O)N/N=C/CCc2ccccc2)c1
inactive: [1] 92 % of control | [2] 93 % of control | endpoint: mean survival time, dose: 25.0 mg/kg/injection, schedule: Q04DX002 (ip), vehicle: saline with Tween-80 100 % of control | [3] 97 % of control | endpoint: mean survival time, dose: 50.0 mg/kg/injection, schedule: Q04DX002 (ip), vehicle: saline with Tween-80 95 % of control | [4] 97 % of control | [6] 101 % of control | [7] 97 % of control

O=c1[nH]c(N[N+](=O)[O-])nc(-c2ccccc2)c1Br
inactive: [6] 103 % of control | [7] 100 % of control | [8] 92 % of control

CC(=O)c1ccccc1[N+](=O)[O-]
inactive: [4] 94 % of control | [5] 95 % of control

Cc1c(C(=O)O)nc(CC(O)C(Cl)(Cl)Cl)[nH]c1=O (stereo not given)
inactive: endpoint: mean survival time, dose: 25.0 mg/kg/injection, schedule: Q01DX005 (ip), vehicle: other 106 % of control | endpoint: mean survival time, dose: 50.0 mg/kg/injection, schedule: Q01DX005 (ip), vehicle: other 101 % of control | endpoint: mean survival time, dose: 100.0 mg/kg/injection, schedule: Q01DX005 (ip), vehicle: other 101 % of control | endpoint: mean survival time, dose: 200.0 mg/kg/injection, schedule: Q01DX005 (ip), vehicle: other 103 % of control | endpoint: mean survival time, dose: 400.0 mg/kg/injection, schedule: Q01DX005 (ip), vehicle: other 95 % of control

CC[C@]12CN3CCc4c([nH]c5ccccc45)[C@@](C(=O)OC)(c4cc5c(cc4OC)N(C)[C@H]4[C@@](O)(C(=O)OC)[C@H](OC(C)=O)[C@]6(CC)C=CCN7CC[C@]54[C@@H]76)CC(C3)[C@H]1O2 (stereo not given in full)
inactive: endpoint: mean survival time, dose: 1.5 mg/kg/injection, schedule: Q01DX009 (ip), vehicle: Klucel (hydroxypropylcellulose) (HPC) 106 % of control | endpoint: mean survival time, dose: 3.0 mg/kg/injection, schedule: Q01DX009 (ip), vehicle: Klucel (hydroxypropylcellulose) (HPC) 108 % of control | endpoint: mean survival time, dose: 6.0 mg/kg/injection, schedule: Q01DX009 (ip), vehicle: Klucel (hydroxypropylcellulose) (HPC) 110 % of control | endpoint: mean survival time, dose: 6.25 mg/kg/injection, schedule: Q04DX003 (ip), vehicle: saline 111 % of control | endpoint: mean survival time, dose: 12.0 mg/kg/injection, schedule: Q01DX009 (ip), vehicle: Klucel (hydroxypropylcellulose) (HPC) 112 % of control | endpoint: mean survival time, dose: 12.5 mg/kg/injection, schedule: Q04DX003 (ip), vehicle: saline 120 % of control | endpoint: median survival time, dose: 1.0 mg/kg/injection, schedule: Q03HX008 (ip), vehicle: saline 100 % of control | endpoint: median survival time, dose: 1.0 mg/kg/injection, schedule: Q03HX016 (ip), vehicle: saline 100 % of control | endpoint: median survival time, dose: 1.0 mg/kg/injection, schedule: Q03HX024 (ip), vehicle: saline 100 % of control | endpoint: median survival time, dose: 2.0 mg/kg/injection, schedule: Q03HX008 (ip), vehicle: saline 110 % of control | endpoint: median survival time, dose: 2.0 mg/kg/injection, schedule: Q03HX016 (ip), vehicle: saline 120 % of control | endpoint: median survival time, dose: 2.0 mg/kg/injection, schedule: Q03HX024 (ip), vehicle: saline 120 % of control | endpoint: median survival time, dose: 4.0 mg/kg/injection, schedule: Q01DX009 (ip), vehicle: saline 110 % of control | endpoint: median survival time, dose: 4.0 mg/kg/injection, schedule: Q04DX003 (ip), vehicle: saline 100 % of control | endpoint: median survival time, dose: 8.0 mg/kg/injection, schedule: Q01DX001 (ip), vehicle: saline 100 % of control | endpoint: median survival time, dose: 8.0 mg/kg/injection, schedule: Q04DX003 (ip), vehicle: saline 105 % of control | endpoint: median survival time, dose: 8.0 mg/kg/injection, schedule: Q08DX002 (ip), vehicle: saline 115 % of control | endpoint: median survival time, dose: 16.0 mg/kg/injection, schedule: Q01DX001 (ip), vehicle: saline 110 % of control | endpoint: median survival time, dose: 16.0 mg/kg/injection, schedule: Q01DX009 (ip), vehicle: saline 100 % of control | endpoint: median survival time, dose: 16.0 mg/kg/injection, schedule: Q08DX002 (ip), vehicle: saline 110 % of control | endpoint: median survival time, dose: 32.0 mg/kg/injection, schedule: Q01DX001 (ip), vehicle: saline 110 % of control

O=S(=O)(OCC(COS(=O)(=O)c1ccccc1)(COS(=O)(=O)c1ccccc1)COS(=O)(=O)c1ccccc1)c1ccccc1
inactive: [3] 96 % of control | [4] 97 % of control | [12] 86 % of control | [5] 95 % of control | [13] 89 % of control

O=C1C(Br)CCC1C(O)(C(F)(F)F)C(F)(F)F (stereo not given)
inactive: [3] 98 % of control | [4] 102 % of control | [12] 92 % of control | [5] 104 % of control | [13] 91 % of control

N#Cc1ccc(CO)cc1Br
inactive: [14] 97 % of control | [15] 90 % of control | [16] 92 % of control

FC(F)(F)COP1(OCC(F)(F)F)=NP(OCC(F)(F)F)(OCC(F)(F)F)=NP(OCC(F)(F)F)(OCC(F)(F)F)=NP(OCC(F)(F)F)(OCC(F)(F)F)=N1
inactive: [17] 100 % of control | [18] 100 % of control | [14] 97 % of control | [19] 97 % of control | [15] 97 % of control | [16] 105 % of control

NC(CSC(c1ccccc1)(c1ccccc1)c1cccc2ccccc12)C(=O)O (stereo not given)
inactive: endpoint: mean survival time, dose: 25.0 mg/kg/injection, schedule: Q01DX009 (ip), vehicle: saline 100 % of control | [17] 100 % of control | [18] 110 % of control | [19] 102 % of control

CCC[CH2][Sn]1([CH2]CCC)[O]OC(C)(CC)[O]1 (stereo not given)
inactive: endpoint: mean survival time, dose: 0.78 mg/kg/injection, schedule: Q01DX009 (ip), vehicle: saline with Tween-80 95 % of control | endpoint: mean survival time, dose: 1.56 mg/kg/injection, schedule: Q01DX009 (ip), vehicle: saline with Tween-80 110 % of control | endpoint: mean survival time, dose: 3.13 mg/kg/injection, schedule: Q01DX009 (ip), vehicle: saline with Tween-80 112 % of control

NCC1=NCCN1
inactive: endpoint: mean survival time, dose: 100.0 mg/kg/injection, schedule: Q04DX002 (ip), vehicle: saline 124 % of control | endpoint: mean survival time, dose: 200.0 mg/kg/injection, schedule: Q04DX002 (ip), vehicle: saline 95 % of control | endpoint: mean survival time, dose: 400.0 mg/kg/injection, schedule: Q04DX002 (ip), vehicle: saline 102 % of control

Cc1ccc(NC(=O)Nc2cccc(-n3cnc4c(=O)[nH]c(N)nc43)c2)cc1S(=O)(=O)F
inactive: [9] 86 % of control | [10] 88 % of control | [11] 89 % of control
